Experimental data from patent US12404241B2 (Celgene Corporation, priority 2018, dated 2025).
Counter-ions that a name gives are not always drawn.

Molecular target: T1, AR (Homo sapiens, UniProt P10275)
T1 construct: endogenous in cells; host or cells: VCaP cells
T1 sequence (P10275 1-920): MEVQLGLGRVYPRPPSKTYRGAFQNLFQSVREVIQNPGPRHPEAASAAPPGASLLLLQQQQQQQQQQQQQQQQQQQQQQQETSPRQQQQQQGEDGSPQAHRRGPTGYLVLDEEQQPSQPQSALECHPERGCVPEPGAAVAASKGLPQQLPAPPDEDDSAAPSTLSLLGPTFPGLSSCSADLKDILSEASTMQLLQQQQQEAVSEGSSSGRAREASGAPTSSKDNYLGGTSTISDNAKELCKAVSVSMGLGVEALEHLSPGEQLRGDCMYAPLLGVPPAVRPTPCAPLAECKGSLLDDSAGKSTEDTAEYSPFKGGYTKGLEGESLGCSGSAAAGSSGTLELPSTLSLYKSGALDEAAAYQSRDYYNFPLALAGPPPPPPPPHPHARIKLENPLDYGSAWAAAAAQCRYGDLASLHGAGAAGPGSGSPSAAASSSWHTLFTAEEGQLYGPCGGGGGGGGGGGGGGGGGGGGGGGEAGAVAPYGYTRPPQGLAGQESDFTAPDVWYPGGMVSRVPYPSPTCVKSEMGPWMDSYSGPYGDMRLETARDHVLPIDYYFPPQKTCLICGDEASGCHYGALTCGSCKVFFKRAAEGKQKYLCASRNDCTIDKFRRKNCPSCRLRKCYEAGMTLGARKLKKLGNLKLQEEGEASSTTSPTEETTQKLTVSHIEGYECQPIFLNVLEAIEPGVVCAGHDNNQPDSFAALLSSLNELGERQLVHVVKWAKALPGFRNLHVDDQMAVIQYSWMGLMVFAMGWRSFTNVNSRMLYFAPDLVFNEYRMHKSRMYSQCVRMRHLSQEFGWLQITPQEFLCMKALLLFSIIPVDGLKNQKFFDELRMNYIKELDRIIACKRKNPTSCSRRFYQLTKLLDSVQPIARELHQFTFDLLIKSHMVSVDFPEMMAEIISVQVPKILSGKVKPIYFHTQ
Test: VCAP AR Degradation Assay
Assay type: cell-based
Settings: for Y (AR degradation efficiency, % of DMSO control): class symbols *; for DC50: class symbols A-C, read-out: DC50
Outline: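 24 h, 37 °C, VCaP (DMEM/8% FBS), 10-pt 1:3 dilutions from 5 μM final top, 0.1% DMSO ctrl. Lysis on ice/4 °C 1 h; total AR by sandwich ELISA, normalized to DMSO. 4PL fit → DC50, EC50, Y (min AR level).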

Y (AR degradation efficiency, % of DMSO control) | DC50 | SMILES
* (0<Y<=25%) | < 100 nM | CCc1cc(N2C(=S)N(c3cnc(C#N)c(C(F)(F)F)c3)C(=O)C2(C)C)ccc1OCCN1CCN([C@@H](C)C(=O)Nc2cc(F)cc(NC3CCC(=O)NC3=O)c2)CC1 (stereo partly drawn) [Example 116, (2S)-2-(4-(2-(4-(3-(6-cyano-5-(trifluoromethyl)pyridin-3-yl)-5,5-dimethyl-4-oxo-2-thioxoimidazolidin-1-yl)-2-ethylphenoxy)ethyl)piperazin-1-yl)-N-(3-(2,6-dioxopiperidin-3-ylamino)-5-fluorophenyl)propanamide]
* (0<Y<=25%) | < 100 nM | CCc1cc(N2C(=S)N(c3cnc(C#N)c(C(F)(F)F)c3)C(=O)C23CCC3)ccc1OCCN1CCN(CC(=O)Nc2cccc(NC3CCC(=O)NC3=O)c2)CC1 (centres unmarked) [Example 56, 2-(4-(2-(4-(7-(6-cyano-5-(trifluoromethyl)pyridin-3-yl)-8-oxo-6-thioxo-5,7-diazaspiro[3.4]octan-5-yl)-2-ethylphenoxy)ethyl)piperazin-1-yl)-N-(3-(2,6-dioxopiperidin-3-ylamino)phenyl)acetamide]
* (0<Y<=25%) | < 100 nM | CC1(C)C(=O)N(c2cnc(C#N)c(C(F)(F)F)c2)C(=S)N1c1ccc(OCCN2CCN(CC(=O)Nc3cc(Cl)cc(NC4CCC(=O)NC4=O)c3)CC2)cc1 (centres unmarked) [Example 24, 2-(4-(2-(4-(3-(6-cyano-5-(trifluoromethyl)pyridin-3-yl)-5,5-dimethyl-4-oxo-2-thioxoimidazolidin-1-yl)-2-ethylphenoxy)ethyl)-2,2-dimethylpiperazin-1-yl)-N-(3-((2,6-dioxopiperidin-3-yl)amino)-5-fluorophenyl)acetamide hydrochoride]
* (0<Y<=25%) | < 100 nM | CCc1cc(N2C(=S)N(c3cnc(C#N)c(C(F)(F)F)c3)C(=O)C2(C)C)ccc1OCCN1CCN(CC(=O)Nc2cc(F)cc(NC3CCC(=O)NC3=O)c2)[C@H](C)C1 (stereo partly drawn) [Example 75, 2-((R)-4-(2-(4-(3-(6-cyano-5-(trifluoromethyl)pyridin-3-yl)-5,5-dimethyl-4-oxo-2-thioxoimidazolidin-1-yl)-2-ethylphenoxy)ethyl)-2-methylpiperazin-1-yl)-N-(3-(2,6-dioxopiperidin-3-ylamino)-5-fluorophenyl)acetamide]
*** (35%<Y<50%) | 100 to 500 nM | CCc1cc(N2C(=S)N(c3cnc(C#N)c(C(F)(F)F)c3)C(=O)C23CCC3)ccc1OCCN1C[C@@H]2CC[C@H]1CN2CC(=O)Nc1cccc(NC2CCC(=O)NC2=O)c1 (stereo partly drawn) [Example 172, 2-((1S,4S)-5-(2-(4-(7-(6-cyano-5-(trifluoromethyl)pyridin-3-yl)-8-oxo-6-thioxo-5,7-diazaspiro[3.4]octan-5-yl)-2-ethylphenoxy)ethyl)-2,5-diazabicyclo[2.2.2]octan-2-yl)-N-(3-(2,6-dioxopiperidin-3-ylamino)phenyl)acetamide]
* (0<Y<=25%) | < 100 nM | CCc1cc(N2C(=S)N(c3cnc(C#N)c(C(F)(F)F)c3)C(=O)C2(C)C)ccc1OCCN1CCN(CC(=O)Nc2cc(F)cc(NC3CCC(=O)NC3=O)c2)C(C)(C)C1 (centres unmarked) [Example 77, 2-(4-(2-(4-(3-(6-cyano-5-(trifluoromethyl)pyridin-3-yl)-5,5-dimethyl-4-oxo-2-thioxoimidazolidin-1-yl)-2-ethylphenoxy)ethyl)-2,2-dimethylpiperazin-1-yl)-N-(3-(2,6-dioxopiperidin-3-ylamino)-5-fluorophenyl)acetamide]
* (0<Y<=25%) | < 100 nM | CCc1cc(N2C(=S)N(c3cnc(C#N)c(C(F)(F)F)c3)C(=O)C2(C)C)ccc1OCCN1CCN(CC(=O)Nc2cc(Cl)cc(NC3CCC(=O)NC3=O)c2)C2(CC2)C1 (centres unmarked) [Example 102, N-(3-chloro-5-(2,6-dioxopiperidin-3-ylamino)phenyl)-2-(7-(2-(4-(3-(6-cyano-5-(trifluoromethyl)pyridin-3-yl)-5,5-dimethyl-4-oxo-2-thioxoimidazolidin-1-yl)-2-ethylphenoxy)ethyl)-4,7-diazaspiro[2.5]octan-4-yl)acetamide]
* (0<Y<=25%) | < 100 nM | CCc1cc(N2C(=S)N(c3cnc(C#N)c(C(F)(F)F)c3)C(=O)C2(C)C)ccc1OCCN1CCN(CC(=O)Nc2cc(Cl)cc(NC3CCC(=O)NC3=O)c2)C(C)(C)C1 (centres unmarked) [Example 78, N-(3-chloro-5-(2,6-dioxopiperidin-3-ylamino)phenyl)-2-(4-(2-(4-(3-(6-cyano-5-(trifluoromethyl)pyridin-3-yl)-5,5-dimethyl-4-oxo-2-thioxoimidazolidin-1-yl)-2-ethylphenoxy)ethyl)-2,2-dimethylpiperazin-1-yl)acetamide]

SMILES | Y (AR degradation efficiency, % of DMSO control) | DC50
CCc1cc(N2C(=S)N(c3ccc(C#N)c(C(F)(F)F)c3)C(=O)C2(C)C)ccc1OCCN1C[C@@H](C)N(CC(=O)Nc2cc(F)cc(NC3CCC(=O)NC3=O)c2)[C@@H](C)C1 (stereo partly drawn) [Example 283, 2-((2R,6S)-4-(2-(4-(3-(4-cyano-3-(trifluoromethyl)phenyl)-5,5-dimethyl-4-oxo-2-thioxoimidazolidin-1-yl)-2-ethylphenoxy)ethyl)-2,6-dimethylpiperazin-1-yl)-N-(3-(2,6-dioxopiperidin-3-ylamino)-5-fluorophenyl)acetamide] | * (0<Y<=25%) | < 100 nM
C[C@@H]1CN(CC(=O)Nc2cccc(NC3CCC(=O)NC3=O)c2)[C@H](C)CN1CCOc1ccc(N2C(=S)N(c3ccc(C#N)c(C(F)(F)F)c3)C(=O)C2(C)C)cc1C1CC1 (stereo partly drawn) [Example 203, 2-((2R,5R)-4-(2-(4-(3-(4-cyano-3-(trifluoromethyl)phenyl)-5,5-dimethyl-4-oxo-2-thioxoimidazolidin-1-yl)-2-cyclopropylphenoxy)ethyl)-2,5-dimethylpiperazin-1-yl)-N-(3-(2,6-dioxopiperidin-3-ylamino)phenyl)acetamide] | * (0<Y<=25%) | < 100 nM
CCc1cc(N2C(=S)N(c3ccc(C#N)c(C(F)(F)F)c3)C(=O)C2(C)C)ccc1OCCN1CCN(CC(=O)Nc2cc(F)cc(NC3CCC(=O)NC3=O)c2)[C@H](C)C1 (stereo partly drawn) [Example 90, 2-((R)-4-(2-(4-(3-(4-cyano-3-(trifluoromethyl)phenyl)-5,5-dimethyl-4-oxo-2-thioxoimidazolidin-1-yl)-2-ethylphenoxy)ethyl)-2-methylpiperazin-1-yl)-N-(3-(2,6-dioxopiperidin-3-ylamino)-5-fluorophenyl)acetamide] | * (0<Y<=25%) | < 100 nM
CC1(C)C(=O)N(c2ccc(C#N)c(C(F)(F)F)c2)C(=S)N1c1ccc(OCCN2CCN(CC(=O)Nc3cccc(NC4CCC(=O)NC4=O)c3)CC2)c(F)c1 (centres unmarked) [Example 1, formate] | *** (35%<Y<50%) | < 100 nM
CCc1cc(N2C(=S)N(c3ccc(C#N)c(C(F)(F)F)c3)C(=O)C2(C)C)ccc1OCCN1CCN(CC(=O)Nc2cccc(NC3CCC(=O)NC3=O)c2)[C@H](CC)C1 (stereo partly drawn) [Example 260, 2-((R)-4-(2-(4-(3-(4-cyano-3-(trifluoromethyl)phenyl)-5,5-dimethyl-4-oxo-2-thioxoimidazolidin-1-yl)-2-ethylphenoxy)ethyl)-2-ethylpiperazin-1-yl)-N-(3-(2,6-dioxopiperidin-3-ylamino)phenyl)acetamide] | * (0<Y<=25%) | 100 to 500 nM
